In patent US11702416B2, “1H-pyrrolo[2,3-c]pyridin-7(6H)-ones and pyrazolo[3,4-c]pyridin-7(6H)-ones as inhibitors of BET proteins” (Incyte Corporation, priority 2014, dated 2023) one finds IC50 data, which are given here for one compound.

The test relates to KMS.12.BM cell line (human myeloma). Put plainly: KMS.12.BM cell viability assay. It counts as cell-based. The settings on record: 3 days, Cell Titer-GLO ATP quantitation; concentration required for 50% cell death. The method, then:
KMS.12.BM cell line (human myeloma) was purchased from JCRB (Osaka, Japan) and maintained in RPMI with 10% FBS culture medium. To measure the cytotoxic activity of the compounds through ATP quantitation, the KMS.12.BM cells are plated in the RPMI culture medium at 5000 cells/well/per 100 μL into a 96-well polystyrene clear black tissue culture plate (Greiner-bio-one through VWR, NJ), in the presence or absence of a concentration range of test compounds. After 3 days, […] Cell Titer-GLO Luminescent (Promega, Madison, Wis.) cell culture agent is added to each well for 10 minutes at room temperature to stabilize the luminescent signal. This determines the number of viable cells in culture based on quantitation of the ATP present, which signals the presence of metabolically active cells. Luminescence is measured with the Top Count 384 (Packard Bioscience through Perkin Elmer, Boston, Mass.). Compound inhibition is determined relative to cells cultured with no drug and the IC50 is reported as the compound concentration required for 50% cell death.
(In general: Cellular ATP, detected with luciferase, serves as a proxy for viable cell number.)

In general, IC50 refers to the concentration at which inhibition is half-maximal. Read a low IC50 as greater potency in that assay. Take `Cn1cc(-c2cc(S(C)(=O)=O)cc3c2NC2(CCC2)C(=O)N3)c2cc[nH]c2c1=O` [Example 62, 8′-(6-methyl-7-oxo-6,7-dihydro-1H-pyrrolo[2,3-c]pyridin-4-yl)-6′-(methylsulfonyl)-1,4′-dihydro-3H-spiro[cyclobutane-1,2′-quinoxalin]-3′-one]: the 50% inhibitory concentration (IC50) is no more than 1000 nM.
